Test results reported in patent US20250361230A1, “LATS Inhibitors and Uses Thereof” (The USA, as Represented by the Secretary, Dept. of Heath …, priority 2022, published 2025).
Where two headings read alike, the source gives them in different places.

Legend:
LATS1 = target: T1, LATS1 (Homo sapiens, UniProt O95835); assay: RBC HotSpot kinase assay (33P-ATP, P81 filter-binding), LATS1; format: biochemical; conditions: read-out: LATS1 IC50
T1 sequence (O95835 1-1130): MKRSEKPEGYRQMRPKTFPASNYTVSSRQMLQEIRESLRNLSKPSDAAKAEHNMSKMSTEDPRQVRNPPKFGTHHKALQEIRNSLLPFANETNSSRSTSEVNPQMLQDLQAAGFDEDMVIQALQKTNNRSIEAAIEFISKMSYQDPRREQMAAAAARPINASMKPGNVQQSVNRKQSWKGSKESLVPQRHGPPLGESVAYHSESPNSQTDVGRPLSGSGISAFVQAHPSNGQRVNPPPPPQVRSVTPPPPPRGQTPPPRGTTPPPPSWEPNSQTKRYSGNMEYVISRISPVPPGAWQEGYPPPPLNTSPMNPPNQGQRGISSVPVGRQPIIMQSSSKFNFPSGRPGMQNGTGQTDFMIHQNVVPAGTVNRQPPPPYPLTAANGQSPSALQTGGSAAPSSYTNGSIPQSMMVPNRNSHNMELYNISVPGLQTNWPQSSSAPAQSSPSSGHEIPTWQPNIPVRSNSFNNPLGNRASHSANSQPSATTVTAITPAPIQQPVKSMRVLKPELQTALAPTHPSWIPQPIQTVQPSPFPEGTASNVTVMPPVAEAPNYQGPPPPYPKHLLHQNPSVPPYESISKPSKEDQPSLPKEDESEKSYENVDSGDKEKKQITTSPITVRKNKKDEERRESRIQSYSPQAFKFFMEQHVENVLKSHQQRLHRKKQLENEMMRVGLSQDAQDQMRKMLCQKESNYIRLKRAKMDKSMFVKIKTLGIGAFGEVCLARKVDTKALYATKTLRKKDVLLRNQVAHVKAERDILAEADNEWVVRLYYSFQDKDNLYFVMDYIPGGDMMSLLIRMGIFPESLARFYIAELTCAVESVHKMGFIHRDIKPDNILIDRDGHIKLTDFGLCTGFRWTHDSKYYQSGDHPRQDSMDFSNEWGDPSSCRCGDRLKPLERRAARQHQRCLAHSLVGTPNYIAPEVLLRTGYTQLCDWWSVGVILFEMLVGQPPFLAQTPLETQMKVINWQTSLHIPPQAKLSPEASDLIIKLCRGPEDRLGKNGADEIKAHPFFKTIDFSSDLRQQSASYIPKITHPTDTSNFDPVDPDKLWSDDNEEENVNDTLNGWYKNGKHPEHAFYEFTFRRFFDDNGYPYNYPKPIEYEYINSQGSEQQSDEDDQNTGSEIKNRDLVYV
In short: (§1)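 Radiometric 33P-ATP kinase reaction in 20 mM Hepes pH 7.5, 10 mM MgCl2, 1 mM EGTA, 0.01% Brij35, 0.02 mg/ml BSA, 0.1 mM Na3VO4, 2 mM DTT, 1% DMSO. Compound preincubated with kinase and substrate 20 min, then 2 h at room temperature; P81 filter-binding read-out. IC50 (nM) from 10-point singlet curves.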

AKT = AKT (Homo sapiens, UniProt P31749); assay: RBC HotSpot kinase assay (33P-ATP, P81 filter-binding), AKT; format: biochemical; conditions: read-out: AKT IC50
Sequence of AKT (P31749 whole entry): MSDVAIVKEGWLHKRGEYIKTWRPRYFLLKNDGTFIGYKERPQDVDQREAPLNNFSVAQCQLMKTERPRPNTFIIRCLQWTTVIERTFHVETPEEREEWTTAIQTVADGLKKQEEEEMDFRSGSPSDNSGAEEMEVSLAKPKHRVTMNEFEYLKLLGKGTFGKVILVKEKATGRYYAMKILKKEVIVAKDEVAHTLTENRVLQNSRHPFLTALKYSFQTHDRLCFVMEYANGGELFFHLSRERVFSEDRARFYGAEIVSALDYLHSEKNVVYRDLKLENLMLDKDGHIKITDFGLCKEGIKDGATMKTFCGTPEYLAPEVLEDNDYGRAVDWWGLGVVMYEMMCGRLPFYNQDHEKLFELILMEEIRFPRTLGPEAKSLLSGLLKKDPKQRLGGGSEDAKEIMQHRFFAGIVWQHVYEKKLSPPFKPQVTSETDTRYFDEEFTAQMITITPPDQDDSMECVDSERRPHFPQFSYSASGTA
In short: as §1

[1] = Table 28, biochemical kinase assay
[2] = Table 32, biochemical kinase assay

SMILES: Cc1cc(-c2ccnc3[nH]cc(F)c23)ccc1[C@@]1(O)[C@H](C)CN(C2COC2)C[C@@H]1C [Compound 24, (3S,4s,5R)-4-(4-(3-fluoro-1H-pyrrolo[2,3-b]pyridin-4-yl)-2-methylphenyl)-3,5-dimethyl-1-(oxetan-3-yl)piperidin-4-ol]
- IC50 (LATS1; [1]): 5.7 nM
- IC50 (AKT; [1]): 374 nM

SMILES: C[C@@H]1CN(C2CCS(=O)(=O)CC2)C[C@H](C)C1(O)c1c(F)cc(-c2ccnc3[nH]cc(F)c23)cc1F (stereo partly drawn) [Compound 31, 4-((3S,5R)-4-(2,6-difluoro-4-(3-fluoro-1H-pyrrolo[2,3-b]pyridin-4-yl)phenyl)-4-hydroxy-3,5-dimethylpiperidin-1-yl)tetrahydro-2H-thiopyran 1,1-dioxide]
- IC50 (LATS1; [1]): 6.7 nM
- IC50 (AKT; [1]): 129 nM

SMILES: NCc1ccc(-c2ccnc3[nH]ccc23)cc1 [Compound 287, (4-(1H-pyrrolo[2,3-b]pyridin-4-yl)phenyl) methanamine]
- IC50 (LATS1; [1]): 23 nM
- IC50 (AKT; [1]): 1030 nM

SMILES: Cc1cc(-c2ccnc3[nH]cc(C#N)c23)cc(F)c1[C@@]1(O)[C@H](C)CN(C2CCS(=O)(=O)CC2)C[C@@H]1C [Compound 2002, 4-(4-((3S,4s,5R)-1-(1,1-dioxidotetrahydro-2H-thiopyran-4-yl)-4-hydroxy-3,5-dimethylpiperidin-4-yl)-3-fluoro-5-methylphenyl)-1H-pyrrolo[2,3-b]pyridine-3-carbonitrile]
- IC50 (LATS1; biochemical kinase inhibition): 10.9 nM
- IC50 (AKT; biochemical kinase inhibition): 188 nM

SMILES: C[C@@H]1CN(C2CCC2)C[C@H](C)[C@@]1(O)c1c(F)cc(-c2ccnc3[nH]cc(F)c23)cc1F [Compound 46, (3R,4s,5S)-1-cyclobutyl-4-(2,6-difluoro-4-(3-fluoro-1H-pyrrolo[2,3-b]pyridin-4-yl)phenyl)-3,5-dimethylpiperidin-4-ol]
- IC50 (LATS1; [1]): 1.7 nM
- IC50 (AKT; [1]): 358 nM

SMILES: Cc1cc(-c2ccnc3[nH]cc(C#N)c23)cc(F)c1[C@@]1(O)[C@H](C)CN(C(=O)[C@@H](C)N)C[C@@H]1C [Compound 2015, 4-(4-((3S,4S,5R)-1-(D-alanyl)-4-hydroxy-3,5-dimethylpiperidin-4-yl)-3-fluoro-5-methylphenyl)-1H-pyrrolo[2,3-b]pyridine-3-carbonitrile]
- IC50 (LATS1; biochemical kinase inhibition): 4 nM
- IC50 (AKT; biochemical kinase inhibition): 236 nM

SMILES: NCc1ccc(-c2ccnc3[nH]ccc23)cc1C(F)(F)F [Compound 284, (4-(1H-pyrrolo[2,3-b]pyridin-4-yl)-2-(trifluoromethyl)phenyl) methanamine]
- IC50 (LATS1; [1]): 10 nM
- IC50 (AKT; [1]): 1150 nM

SMILES: NCc1ccc(-c2ccnc3[nH]cc(Cl)c23)cc1 [Compound 276, (4-(3-chloro-1H-pyrrolo[2,3-b]pyridin-4-yl)phenyl) methanamine]
- IC50 (LATS1; [1]): 12 nM
- IC50 (AKT; [1]): 167 nM

SMILES: Cc1cc(-c2ccnc3[nH]cc(F)c23)ncc1[C@@]1(O)[C@H](C)CN(C2CCS(=O)(=O)CC2)C[C@@H]1C [Compound 51, 4-((3R,4s,5S)-4-(6-(3-fluoro-1H-pyrrolo[2,3-b]pyridin-4-yl)-4-methylpyridin-3-yl)-4-hydroxy-3,5-dimethylpiperidin-1-yl)tetrahydro-2H-thiopyran 1,1-dioxide]
- IC50 (LATS1; [1]): 2080 nM
- IC50 (AKT; [1]): > 10000 nM

SMILES: Cc1cc(-c2ccnc3[nH]cc(F)c23)ccc1CN [Compound 211, (4-(3-fluoro-1H-pyrrolo[2,3-b]pyridin-4-yl)-2-methylphenyl) methanamine]
- IC50 (LATS1; [1]): 3.7 nM
- IC50 (AKT; [1]): 312 nM

SMILES: CC1(c2ccc(-c3ccnc4[nH]ccc34)cc2)CCNCC1 [Compound 201, 4-(4-(4-methylpiperidin-4-yl)phenyl)-1H-pyrrolo[2,3-b]pyridine]
- IC50 (LATS1; [1]): 59 nM
- IC50 (AKT; [1]): 200 nM

SMILES: Fc1c[nH]c2nccc(-c3ccc(C4CCNCC4)c(Cl)c3)c12 [Compound 172, 4-(3-chloro-4-(piperidin-4-yl)phenyl)-3-fluoro-1H-pyrrolo[2,3-b]pyridine]
- IC50 (LATS1; [1]): 9.6 nM
- IC50 (AKT; [1]): 715 nM

SMILES: Cc1cc(-c2ccnc3[nH]cc(C#N)c23)cc(F)c1[C@@]1(O)[C@H](C)CN(C(=O)CNCC(F)(F)F)C[C@@H]1C [Compound 2014, 4-(3-fluoro-4-((3S,4s,5R)-4-hydroxy-3,5-dimethyl-1-((2,2,2-trifluoroethyl)glycyl)piperidin-4-yl)-5-methylphenyl)-1H-pyrrolo[2,3-b]pyridine-3-carbonitrile]
- IC50 (LATS1; biochemical kinase inhibition): 7.1 nM
- IC50 (AKT; biochemical kinase inhibition): 3010 nM

SMILES: NCC(O)(c1ccc(Cl)cc1)c1ccc(-c2ccnc3[nH]cc(Br)c23)cc1 (centres unmarked) [Compound 1005, 2-amino-1-(4-(3-bromo-1H-pyrrolo[2,3-b]pyridin-4-yl)phenyl)-1-(4-chlorophenyl)ethan-1-ol]
- IC50 (LATS1; [2]): 5.1 nM
- IC50 (AKT; [2]): 1.7 nM

SMILES: OC1(c2ccc(-c3ccnc4[nH]cc(F)c34)cc2)CCNCC1 [Compound 110, 4-(4-(3-fluoro-1H-pyrrolo[2,3-b]pyridin-4-yl)phenyl)piperidin-4-ol]
- IC50 (LATS1; [1]): 5.7 nM
- IC50 (AKT; [1]): 490 nM

SMILES: C[C@@H]1CN(Cc2ccccn2)C[C@H](C)[C@@]1(O)c1c(F)cc(-c2ccnc3[nH]cc(F)c23)cc1F [Compound 17, (3S,4s,5R)-4-(2,6-difluoro-4-(3-fluoro-1H-pyrrolo[2,3-b]pyridin-4-yl)phenyl)-3,5-dimethyl-1-(pyridin-2-ylmethyl)piperidin-4-ol]
- IC50 (LATS1; [1]): 10.9 nM
- IC50 (AKT; [1]): 1070 nM

SMILES: NCc1ccc(-c2ccnc3[nH]cc(-c4ccccc4)c23)cc1 [Compound 253, (4-(3-phenyl-1H-pyrrolo[2,3-b]pyridin-4-yl)phenyl) methanamine]
- IC50 (LATS1; [1]): 13 nM
- IC50 (AKT; [1]): 983 nM

SMILES: Cc1cc(-c2ccnc3[nH]cc(C#N)c23)cc(F)c1[C@@]1(O)[C@H](C)CN(C(=O)[C@](C)(N)CO)C[C@@H]1C [Compound 2008, 4-(4-((3S,4s,5R)-1-(2-amino-3-hydroxy-2-methylpropanoyl)-4-hydroxy-3,5-dimethylpiperidin-4-yl)-3-fluoro-5-methylphenyl)-1H-pyrrolo[2,3-b]pyridine-3-carbonitrile]
- IC50 (LATS1; biochemical kinase inhibition): 5.2 nM
- IC50 (AKT; biochemical kinase inhibition): 262 nM

SMILES: OC1(c2ccc(-c3ccnc4[nH]cc(F)c34)cc2)CC2(CNC2)C1 [Compound 319, 6-(4-(3-fluoro-1H-pyrrolo[2,3-b]pyridin-4-yl)phenyl)-2-azaspiro[3.3]heptan-6-ol]
- IC50 (LATS1; [1]): 66 nM
- IC50 (AKT; [1]): 378 nM

SMILES: Cc1cc(-c2ccnc3[nH]cc(F)c23)cc(F)c1C1(O)[C@H](C)CN(C2COC2)C[C@@H]1C (stereo partly drawn) [Compound 30, (3S,5R)-4-(2-fluoro-4-(3-fluoro-1H-pyrrolo[2,3-b]pyridin-4-yl)-6-methylphenyl)-3,5-dimethyl-1-(oxetan-3-yl)piperidin-4-ol]
- IC50 (LATS1; [1]): 5.9 nM
- IC50 (AKT; [1]): 698 nM

SMILES: C[C@@H]1CNC[C@H](C)[C@@]1(O)c1ccc(-c2ccnc3[nH]cc(F)c23)nc1 [Compound 8, (3S,4s,5R)-4-(6-(3-fluoro-1H-pyrrolo[2,3-b]pyridin-4-yl)pyridin-3-yl)-3,5-dimethylpiperidin-4-ol]
- IC50 (LATS1; [1]): 53 nM
- IC50 (AKT; [1]): 3330 nM

SMILES: OC1(c2ccc(-c3ccnc4[nH]ccc34)cc2)CCNCC1 [Compound 111, 4-(4-(1H-pyrrolo[2,3-b]pyridin-4-yl)phenyl)piperidin-4-ol]
- IC50 (LATS1; [1]): 22 nM
- IC50 (AKT; [1]): 1100 nM

SMILES: NCc1ccc(-c2ccnc3[nH]cc(-c4ccccc4)c23)cc1-c1ccccc1 [Compound 219, (5-(3-phenyl-1H-pyrrolo[2,3-b]pyridin-4-yl)-[1,1′-biphenyl]-2-yl)methanamine]
- IC50 (LATS1; [1]): 39 nM
- IC50 (AKT; [1]): 394 nM

SMILES: Cc1cc(-c2ccnc3[nH]cc(C#N)c23)cc(F)c1[C@@]1(O)[C@H](C)CN(C(=O)[C@H](N)CO)C[C@@H]1C [Compound 2007, 4-(4-((3S,4S,5R)-1-(D-seryl)-4-hydroxy-3,5-dimethylpiperidin-4-yl)-3-fluoro-5-methylphenyl)-1H-pyrrolo[2,3-b]pyridine-3-carbonitrile]
- IC50 (LATS1; biochemical kinase inhibition): 8.5 nM
- IC50 (AKT; biochemical kinase inhibition): 159 nM

SMILES: C[C@@H]1CN(C2CCNCC2)C[C@H](C)[C@@]1(O)c1c(F)cc(-c2ccnc3[nH]cc(F)c23)cc1F [Compound 90, (3R,4s,5S)-4-(2,6-difluoro-4-(3-fluoro-1H-pyrrolo[2,3-b]pyridin-4-yl)phenyl)-3,5-dimethyl-[1,4′-bipiperidin]-4-ol]
- IC50 (LATS1; [1]): 4.9 nM
- IC50 (AKT; [1]): 100 nM
